This note sets out measurements from US20240050392A1, “COMPOSITIONS AND METHODS FOR IMPROVED TREATMENT OF PLATINUM-BASED CHEMOTHERAPEUTIC RESISTANT TUMORS” (THE REGENTS OF THE UNIVERSITY OF THE COLORADO, A BODY …, priority 2021, published 2024).

What all share (format): cell-based, human
In data set [1] the test system is KU1919-GemCis and KU1919 parental cells. Description: Drug dose response with NPEPPS knockdown or overexpression.
In the next data set the test system is NPEPPS mRNA. Description: Cisplatin induced NPEPPS mRNA expression (RT-qPCR). The protocol: Cisplatin induced NPEPPS mRNA expression. Total RNA was isolated from cells using Trizol (ThermoFisher) and/or phenol-chloroform based extraction methods. Residual DNA was digested with DNAse I (Life technologies). cDNA synthesis was performed using Superscript II Reverse Transcriptase kit (Life technologies) using random primers. RT-qPCR reactions were performed on a CFX Connect Real-Time PCR Detection System thermocycler (Bio-Rad) using TaqMan gene expression assays for NPEPPS and HMBS as a housekeeping gene (ThermoFisher) in combination with SensiFAST Probe No-ROX Kit (Bioline, Toronto, Canada). Expression data was calculated using 2^−ΔΔCt. All cell line experiments were performed in triplicate from independently grown cells. Comparisons at the indicated dose of cisplatin were made to the control treatment (0 μM cisplatin) using a t-test.

In the next data set the test system is TCCSUP cells. Description: Intracellular cisplatin measurements using CyTOF in TCCSUP cells. How it is done: To validate the role of LRRC8D in cisplatin import, intracellular cisplatin was measured in the TCCSUP cells. […] In contrast to the KU1919, 5637, and T24 cells (FIGS. 12C-12E), NPEPPS knockdown had very little effect on the GemCis-resistant cells (median Pt 195=28) (FIGS. 12I-12J) given that the TCCSUP-GemCis cells have a focal deletion of LRRC8D (FIGS. 9A-9B). However, when LRRC8D was overexpressed, cisplatin import was restored to the levels of the parental cell line (FIG. 12K).
shRNA-mediated knockdown experiments. Lentiviral production and transduction were carried out as follows. In brief, plasmids from the RNAi Consortium (TRC) collection (TRC construct numbers TRCN0000073838, TRCN0000073839 and TRCN0000073840) were used for targeting NPEPPS were selected based on predicted knockdown efficiency; non-targeting controls used were SHC002 and SHC016. 2 μg of target shRNA construct and 2 μg of 3:1 ratio of psPAX2 (Addgene) and pMD2.G (Addgene) were transfected into HEK293FT cells using 2 μg of Polyethylenimine (Polysciences). Lentiviral particles containing media was filtered using 0.45 μm cellulose acetate syringe filter and used for transduction. Puromycin selection was performed at doses used for CRISPR library screening or in some cases, cells were re-selected with higher doses of puromycin (10 μg/mL), in order to ensure complete elimination of non-transduced cells. Selected cells were frozen at early passage and early passage cells were used for all experiments.
Intracellular cisplatin measurements using CyTOF. Cell lines were cultured for several passages in IMDM+10% FBS. […] After dissociation, cells were counted by Trypan blue staining and then placed in separate tubes at 3×10^5 cells. […] Relative cisplatin intensity (defined by ^195Platinum isotopic mass intensity) was analyzed among nucleated ^191Iridium+^193Iridium+events defined by Boolean gating within FlowJo 10.7.1.

The test system of data set [2] is bladder tumor-derived organoids. Briefly: Tumor-derived organoid drug screening (alamarBlue viability, reseeding). The protocol:
Three independent organoid models derived from patients that failed between 4 to 6 cycles of neoadjuvant gemcitabine plus cisplatin chemotherapy (FIG. 10A). The organoids mimicked the morphological and genomic characteristics of the tumor from which they were derived (FIG. 10B). These organoids were treated with increasing doses of cisplatin and 20 μM of tosedostat.
Tumor-derived Organoids. Culture of the organoids. Human bladder tissue was obtained from the Erasmus MC Bladder Cancer Center, Rotterdam, the Netherlands. Bladder tumor-derived organoids from biopsies obtained through TURBT or cystectomy. Briefly, bladder tissues were washed with Advanced DMEM/F12 (Gibco) supplemented with 10 mM HEPES (Gibco), 1% GlutaMax (Gibco) and 100 μg/ml primocin (InvivoGen), henceforth Ad+++. Tissue was minced and incubated at 37° C. with the digestion solution (collagenase 2.5 mg/ml in EBSS) and isolated cells were passed through […] strainer (Falcon), washed with Ad+++ and seeded in 50 μl drops of BME (R&D system) containing 10000-15000 cells in 24 well suspension plates (Greiner). Bladder tumor organoids were cultured in a culture medium containing Ad+++ supplemented with 1×B-27 (Gibco), 1.25 mM N-acetylcysteine (Sigma), 10 mM nicotinamide, 20 μM TGFβ receptor inhibitor A83-01, 100 ng/ml recombinant human FGF10 (Peprotech), 25 ng/ml recombinant human FGF7 (Peprotech), 12.5 ng/ml recombinant human FGF2 (Peprotech), 10 μM Y27632 Rho Kinase (ROCK) Inhibitor (Sigma) and conditioned media for recombinant Rspondin (2.5% v/v), and Wnt3A (2.5% v/v). The medium was changed every three days. Organoids were passaged at a 1:3 to 1:6 ratio every 7 days using cell dissociation solution-non enzymatic (Sigma) and plated in fresh BME matrix droplets.
Drug screening. Organoids were collected 7 days after passaging, passed through a […] strainer and 1000 organoids were seeded per well of a 48-well plate in BME matrix droplets. After 24 hours cisplatin (Sigma) resuspended in PBS was added at different concentrations (2, 10, 25, and 50 μM) with or without tosedostat (20 μM) (Tocris) resuspended in DMSO. All wells were adjusted to contain less than 0.7% DMSO. Organoids were cultured for the first 6 days in the presence of drugs followed by drug withdrawal, where organoids were grown in organoid culture media for 10 days. The entire content of the wells in different treatment groups was collected, washed and reseeded after disaggregation in fresh BME, and cultured for 6 days. Cell viability was assayed using alamarBlue (Invitrogen) according to the manufacturer's instructions after 6 days of drug incubation, 10 days of drug withdrawal, and 6 days post reseeding. Viability data was normalized using organoid wells treated with vehicle control.
For orientation: Resazurin is reduced to fluorescent resorufin, in cell work by metabolically active cells.

With `N.N.[Cl][Pt][Cl]` [cisplatin], the “effect of NPEPPS knockdown on drug response” value in data set [1] (KU1919-GemCis cells, stable NPEPPS shRNA knockdown) is reported as “preferentially enhanced response”. Moreover, in data set [1] (KU1919 parental lines overexpressing NPEPPS), the “effect of NPEPPS overexpression on drug response” value is reported as “increased treatment resistance”. Further, the “NPEPPS mRNA” value in the data set on NPEPPS mRNA (KU1919-Par and KU1919-GemCis cells after 24 hours of cisplatin treatment) is “increased”. The NPEPPS induction entry in the data set on NPEPPS mRNA (patient-derived organoids treated with cisplatin) was “induced NPEPPS in a dose dependent manner”. Moreover, the “intracellular cisplatin, median Pt 195” value was determined as 189 in the data set with TCCSUP cells (TCCSUP parental cells); 22 with TCCSUP cells (TCCSUP-GemCis cells); 28 with TCCSUP cells (TCCSUP-GemCis cells, NPEPPS knockdown). In addition, the “organoid growth after reseeding in new growth conditions” value in data set [2] (2 μM cisplatin alone) is recorded as “able to re-grow”. The organoid killing entry in data set [2] (cisplatin alone at 25 μM) is on record as “all organoids were killed”.
